Reference: patent US20260356851A1, “TRICYCLIC COMPOUNDS AND USES THEREOF” (HUTCHMED LIMITED, priority 2023, published 2026)

Assays:
Format in all cases: cell-based
[1] = target: T1, pERK1/2 (Thr202/Tyr204), PANC-1 (KRAS G121D) (Homo sapiens, UniProt P01116, G12D); experiment: Assay of intracellular pERK1/2 (Thr202/Tyr204) phosphorylation in PANC-1 cells (KRAS G12D); conditions: pERK1/2, 2 days, read-out: PANC-1 (KRAS G12D) IC50
T1 construct: pERK1/2 HTRF read-out
Procedure, shortened: (§1)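 HTRF detection of Thr202/Tyr204-phosphorylated ERK1/2 (665/615 nm ratio) in lysates from cells treated 2 days with serially 3-fold diluted compound.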

[2] = target: T2, pERK1/2 (Thr202/Tyr204), NCI-1H441 (KRAS G12V) (Homo sapiens, UniProt P01116, G12V); experiment: Assay of intracellular pERK1/2 (Thr202/Tyr204) phosphorylation in NCI-H441 cells (KRAS G12V); conditions: pERK1/2, 2 days, read-out: NCI-H441 (KRAS G12V) IC50
T2 construct: pERK1/2 HTRF read-out
T2 sequence (P01116 1-188 isoform P01116-2 G12V): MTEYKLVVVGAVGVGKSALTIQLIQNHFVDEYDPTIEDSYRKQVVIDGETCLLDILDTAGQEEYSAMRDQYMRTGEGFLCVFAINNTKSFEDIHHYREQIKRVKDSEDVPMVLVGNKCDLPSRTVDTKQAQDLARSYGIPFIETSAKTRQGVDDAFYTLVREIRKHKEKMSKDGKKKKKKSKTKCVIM
Procedure, shortened: as §1

[3] = target: T3, pERK1/2 (Thr202/Tyr204), NCI-1H358 (KRAS G12C) (Homo sapiens, UniProt P01116, G12C); experiment: Assay of intracellular pERK1/2 (Thr202/Tyr204) phosphorylation in NCI-H358 cells (KRAS G12C); conditions: pERK1/2, 2 days, read-out: NCI-H358 (KRAS G12C) IC50
T3 construct: pERK1/2 HTRF read-out
T3 sequence (P01116 1-188 isoform P01116-2 G12C): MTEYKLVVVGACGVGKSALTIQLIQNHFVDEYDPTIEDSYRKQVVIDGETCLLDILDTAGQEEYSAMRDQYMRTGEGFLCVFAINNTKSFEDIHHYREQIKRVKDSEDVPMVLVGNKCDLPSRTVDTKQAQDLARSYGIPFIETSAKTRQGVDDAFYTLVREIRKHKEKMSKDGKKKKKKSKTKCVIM
Procedure, shortened: as §1

T1 sequence (P01116 1-188 isoform P01116-2 G12D): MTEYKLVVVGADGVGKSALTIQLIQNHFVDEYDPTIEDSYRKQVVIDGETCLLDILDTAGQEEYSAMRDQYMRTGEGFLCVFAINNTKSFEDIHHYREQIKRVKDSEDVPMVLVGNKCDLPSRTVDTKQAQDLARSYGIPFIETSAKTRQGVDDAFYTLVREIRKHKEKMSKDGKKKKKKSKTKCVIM

| IC50 [1] [nM] | IC50 [2] [nM] | IC50 [3] [nM] | Compound |
| --- | --- | --- | --- |
| > 100 | > 100 | > 100 | Cc1cc(N)cc(-c2nc3c4c(nc(OC[C@@]56CCCN5C[C@H](F)C6)nc4c2F)N(C(C)c2cccnc2N)CCCO3)c1C(F)(F)F (single isomer, unassigned) [Compound 167, 3-((R or S)-1-(5-(5-amino-3-methyl-2-(trifluoromethyl)phenyl)-4-fluoro-2-(((2R,7aS)-2-fluorotetrahydro-1H-pyrrolizin-7a(5H)-yl)methoxy)-9,10-dihydro-7-oxa-1,3,6,11-tetraazacycloocta[de]naphthalen-11(8H)-yl)ethyl)pyridin-2-amine] |
| 17 | 2 | 0.7 | [2H][C@@]1(F)CN2CCC[C@@]2(COc2nc3c4c(nc(-c5cc(N)c(F)c(C)c5C(F)(F)F)c(F)c4n2)OCCN3C(C)c2cccnc2N)C1 (single isomer, unassigned) [Compound 169, (*)3-(1-(5-(5-amino-4-fluoro-3-methyl-2-(trifluoromethyl)phenyl)-4-fluoro-2-(((2S or 2R,7aS)-2-fluorotetrahydro-1H-pyrrolizin-7a(5H)-yl-2-d)methoxy)-8,9-dihydro-1OH-7-oxa-1,3,6,10-tetraazacyclohepta[de]naphthalen-10-yl)ethyl)pyridin-2-amine] |
| 2 | 0.5 | 0.2 | [2H][C@]1(F)CN2CCC[C@@]2(COc2nc3c4c(nc(-c5cc(N)c(F)c(C)c5C(F)(F)F)c(F)c4n2)OCCN3C(C)c2cccnc2N)C1 (single isomer, unassigned) [Compound 170, (*)3-(1-(5-(5-amino-4-fluoro-3-methyl-2-(trifluoromethyl)phenyl)-4-fluoro-2-(((2S or 2R,7aS)-2-fluorotetrahydro-1H-pyrrolizin-7a(5H)-yl-2-d)methoxy)-8,9-dihydro-1OH-7-oxa-1,3,6,10-tetraazacyclohepta[de]naphthalen-10-yl)ethyl)pyridin-2-amine] |
| 1 | 0.3 | 0.1 | [2H]C1([2H])CN(C(C)c2cccnc2N)c2nc(OC[C@@]34CCCN3C[C@H](F)C4)nc3c(F)c(-c4cc(N)c(F)c(C)c4C(F)(F)F)nc(c23)O1 (single isomer, unassigned) [Compound 183, 3-((R or S)-1-(5-(5-amino-4-fluoro-3-methyl-2-(trifluoromethyl)phenyl)-4-fluoro-2-(((2R,7aS)-2-fluorotetrahydro-1H-pyrrolizin-7a(5H)-yl)methoxy)-8,9-dihydro-10H-7-oxa-1,3,6,10-tetraazacyclohepta[de]naphthalen-10-yl-8,8-d2)ethyl)pyridin-2-amine] |
| 28 | 13 | 5 | [2H]C1([2H])CN(C(C)c2cccnc2N)c2nc(OC[C@@]34CCCN3C[C@H](F)C4)nc3c(F)c(-c4cc(N)c(F)c(C)c4C(F)(F)F)nc(c23)O1 (single isomer, unassigned) [Compound 184, 3-((R or S)-1-(5-(5-amino-4-fluoro-3-methyl-2-(trifluoromethyl)phenyl)-4-fluoro-2-(((2R,7aS)-2-fluorotetrahydro-1H-pyrrolizin-7a(5H)-yl)methoxy)-8,9-dihydro-10H-7-oxa-1,3,6,10-tetraazacyclohepta[de]naphthalen-10-yl-8,8-d2)ethyl)pyridin-2-amine] |
| 1 | 0.2 | 0.2 | [2H]C1([2H])Oc2nc(-c3cc(N)c(F)c(C)c3C(F)(F)F)c(F)c3nc(OC[C@@]45CCCN4C[C@H](F)C5)nc(c23)N(C(C)c2cccnc2N)C1([2H])[2H] (single isomer, unassigned) [Compound 199, 3-((R or S)-1-(5-(5-amino-4-fluoro-3-methyl-2-(trifluoromethyl)phenyl)-4-fluoro-2-(((2R,7aS)-2-fluorotetrahydro-1H-pyrrolizin-7a(5H)-yl)methoxy)-8,9-dihydro-10H-7-oxa-1,3,6,10-tetraazacyclohepta[de]naphthalen-10-yl-8,8,9,9-d4)ethyl)pyridin-2-amine] |
| 63 | 10 | 7 | [2H]C1([2H])Oc2nc(-c3cc(N)c(F)c(C)c3C(F)(F)F)c(F)c3nc(OC[C@@]45CCCN4C[C@H](F)C5)nc(c23)N(C(C)c2cccnc2N)C1([2H])[2H] (single isomer, unassigned) [Compound 200, 3-((R or S)-1-(5-(5-amino-4-fluoro-3-methyl-2-(trifluoromethyl)phenyl)-4-fluoro-2-(((2R,7aS)-2-fluorotetrahydro-1H-pyrrolizin-7a(5H)-yl)methoxy)-8,9-dihydro-10H-7-oxa-1,3,6,10-tetraazacyclohepta[de]naphthalen-10-yl-8,8,9,9-d4)ethyl)pyridin-2-amine] |
| 13 | 1 | 0.4 | [2H]C1([2H])Oc2nc(-c3cc(N)c(F)c(C)c3C(F)(F)F)c(F)c3nc(OC[C@@H]4C[C@@H](F)CN4C)nc(c23)N(C(C)c2cccnc2N)C1([2H])[2H] (single isomer, unassigned) [Compound 202, 3-((R or S)-1-(5-(5-amino-4-fluoro-3-methyl-2-(trifluoromethyl)phenyl)-4-fluoro-2-(((2S,4R)-4-fluoro-1-methylpyrrolidin-2-yl)methoxy)-8,9-dihydro-10H-7-oxa-1,3,6,10-tetraazacyclohepta[de]naphthalen-10-yl-8,8,9,9-d4)ethyl)pyridin-2-amine] |
| > 100 | > 100 | 88 | [2H]C1([2H])Oc2nc(-c3cc(N)c(F)c(C)c3C(F)(F)F)c(F)c3nc(OC[C@@H]4C[C@@H](F)CN4C)nc(c23)N(C(C)c2cccnc2N)C1([2H])[2H] (single isomer, unassigned) [Compound 203, 3-((R or S)-1-(5-(5-amino-4-fluoro-3-methyl-2-(trifluoromethyl)phenyl)-4-fluoro-2-(((2S,4R)-4-fluoro-1-methylpyrrolidin-2-yl)methoxy)-8,9-dihydro-10H-7-oxa-1,3,6,10-tetraazacyclohepta[de]naphthalen-10-yl-8,8,9,9-d4)ethyl)pyridin-2-amine] |
| 0.8 | 0.3 | 0.2 | [2H]C1([2H])Oc2nc(-c3cc(N)c(F)c(Cl)c3C(F)(F)F)c(F)c3nc(OC[C@@]45CCCN4C[C@H](F)C5)nc(c23)N(C(C)c2cccnc2N)C1([2H])[2H] (single isomer, unassigned) [Compound 206, 3-((R or S)-1-(5-(5-amino-3-chloro-4-fluoro-2-(trifluoromethyl)phenyl)-4-fluoro-2-(((2R,7aS)-2-fluorotetrahydro-1H-pyrrolizin-7a(5H)-yl)methoxy)-8,9-dihydro-10H-7-oxa-1,3,6,10-tetraazacyclohepta[de]naphthalen-10-yl-8,8,9,9-d4)ethyl)pyridin-2-amine] |
| > 100 | 33 | 9 | [2H]C1([2H])Oc2nc(-c3cc(N)c(F)c(Cl)c3C(F)(F)F)c(F)c3nc(OC[C@@]45CCCN4C[C@H](F)C5)nc(c23)N(C(C)c2cccnc2N)C1([2H])[2H] (single isomer, unassigned) [Compound 207, 3-((R or S)-1-(5-(5-amino-3-chloro-4-fluoro-2-(trifluoromethyl)phenyl)-4-fluoro-2-(((2R,7aS)-2-fluorotetrahydro-1H-pyrrolizin-7a(5H)-yl)methoxy)-8,9-dihydro-10H-7-oxa-1,3,6,10-tetraazacyclohepta[de]naphthalen-10-yl-8,8,9,9-d4)ethyl)pyridin-2-amine] |
| 10 | 1 | 0.4 | [2H]C1([2H])Oc2nc(-c3cc(N)c(F)c(Cl)c3C(F)(F)F)c(F)c3nc(OC[C@@H]4C[C@@H](F)CN4C)nc(c23)N(C(C)c2cccnc2N)C1([2H])[2H] (single isomer, unassigned) [Compound 208, 3-((R or S)-1-(5-(5-amino-3-chloro-4-fluoro-2-(trifluoromethyl)phenyl)-4-fluoro-2-(((2S,4R)-4-fluoro-1-methylpyrrolidin-2-yl)methoxy)-8,9-dihydro-10H-7-oxa-1,3,6,10-tetraazacyclohepta[de]naphthalen-10-yl-8,8,9,9-d4)ethyl)pyridin-2-amine] |
| > 100 | 45 | 13 | [2H]C1([2H])Oc2nc(-c3cc(N)c(F)c(Cl)c3C(F)(F)F)c(F)c3nc(OC[C@@H]4C[C@@H](F)CN4C)nc(c23)N(C(C)c2cccnc2N)C1([2H])[2H] (single isomer, unassigned) [Compound 209, 3-((R or S)-1-(5-(5-amino-3-chloro-4-fluoro-2-(trifluoromethyl)phenyl)-4-fluoro-2-(((2S,4R)-4-fluoro-1-methylpyrrolidin-2-yl)methoxy)-8,9-dihydro-10H-7-oxa-1,3,6,10-tetraazacyclohepta[de]naphthalen-10-yl-8,8,9,9-d4)ethyl)pyridin-2-amine] |
| 6 | 0.6 | 0.3 | CCC(c1cccnc1N)N1CCOc2nc(-c3cc(N)c(F)c(C)c3C(F)(F)F)c(F)c3nc(OC[C@@]45CCCN4C[C@H](F)C5)nc1c23 (single isomer, unassigned) [Compound 212, 3-((R or S)-1-(5-(5-amino-4-fluoro-3-methyl-2-(trifluoromethyl)phenyl)-4-fluoro-2-(((2R,7aS)-2-fluorotetrahydro-1H-pyrrolizin-7a(5H)-yl)methoxy)-8,9-dihydro-10H-7-oxa-1,3,6,10-tetraazacyclohepta[de]naphthalen-10-yl)propyl)pyridin-2-amine] |
